Laboratory results published in ChEMBL document CHEMBL1147908, “Preparation of novel anthranilic acids as antibacterial agents. Extensive evaluation of alternative amide bioisosteres connecting the A- and the B-rings” (2007).
Values after ≈ are worked out from the molar mass of the structure shown.

Legend:
Type in all cases: functional
Staphylococcus aureus = test: Antibacterial activity against Staphylococcus aureus UC 9218
Enterococcus faecalis = test: Antibacterial activity against Enterococcus faecalis UC 9217
[1] = tested on: Staphylococcus epidermidis; test: Antibacterial activity against Staphylococcus epidermidis UC 12084
Streptococcus pneumoniae = test: Antibacterial activity against Streptococcus pneumoniae UC 9912
Haemophilus influenzae = test: Antibacterial activity against Haemophilus influenzae 30063

| Compound | MIC (Staphylococcus aureus) [µg/mL] | MIC (Enterococcus faecalis) [µg/mL] | MIC [1] [µg/mL] | MIC (Streptococcus pneumoniae) [µg/mL] | MIC (Haemophilus influenzae) [µg/mL] |
| --- | --- | --- | --- | --- | --- |
| N#Cc1ccc(C=Cc2cccc(S(=O)(=O)N3CCc4cc(Cl)ccc43)c2)c(C(=O)O)c1 | 16 (≈ 34.4 µM) | > 128 | 32 (≈ 68.8 µM) | 64 (≈ 138 µM) | > 128 |
| O=C(O)c1cc(Cl)ccc1-c1ccc(S(=O)(=O)N2CCc3cc(Cl)ccc32)cc1 | 128 (≈ 286 µM) | > 128 | 128 (≈ 286 µM) | > 128 | > 128 |
| Cc1ccc(S(=O)(=O)Nc2ccc(-c3ccc(Cl)cc3)c(C(=O)O)c2)cc1 | > 128 | > 128 | 64 (≈ 159 µM) | > 128 | > 128 |
| O=C(O)c1cc(Br)ccc1-c1nnc(-c2ccccc2)o1 | > 128 | > 128 | > 128 | > 128 | > 128 |
| O=C(O)c1cc(Br)ccc1-c1nnc(-c2ccccc2)[nH]1 | > 128 | > 128 | > 128 | > 128 | > 128 |
| N#Cc1ccc([C@H]2C[C@@H]2c2cccc(S(=O)(=O)N3CCc4cc(Cl)ccc43)c2)c(C(=O)O)c1 | 4 (≈ 8.35 µM) | > 128 | 8 (≈ 16.7 µM) | > 128 | 16 (≈ 33.4 µM) |
| O=C(O)c1cc(Cl)ccc1CCc1ccc(S(=O)(=O)N2CCc3cc(Cl)ccc32)cc1 | 32 (≈ 67.2 µM) | > 128 | 32 (≈ 67.2 µM) | 32 (≈ 67.2 µM) | > 128 |

Molecules with a lower MIC (Staphylococcus aureus), results first:

| MIC (Staphylococcus aureus) [µg/mL] | MIC (Enterococcus faecalis) [µg/mL] | MIC [1] [µg/mL] | MIC (Streptococcus pneumoniae) [µg/mL] | MIC (Haemophilus influenzae) [µg/mL] | Compound |
| --- | --- | --- | --- | --- | --- |
| 0.25 (≈ 0.538 µM) | 128 (≈ 275 µM) | 0.5 (≈ 1.08 µM) | > 128 | > 128 | N#Cc1ccc(/C=C/c2cccc(S(=O)(=O)N3CCc4cc(Cl)ccc43)c2)c(C(=O)O)c1 |
| 0.5 (≈ 0.933 µM) | 32 (≈ 59.7 µM) | 4 (≈ 7.47 µM) | 4 (≈ 7.47 µM) | 128 (≈ 239 µM) | O=C(Nc1ccc(Br)cc1C(=O)O)c1ccc(S(=O)(=O)N2CCc3cc(Cl)ccc32)cc1 |
| 0.125 (≈ 0.251 µM) | 32 (≈ 64.3 µM) | 0.125 (≈ 0.251 µM) | 16 (≈ 32.1 µM) | 64 (≈ 129 µM) | N#Cc1ccc(NC(=S)c2cccc(S(=O)(=O)N3CCc4cc(Cl)ccc43)c2)c(C(=O)O)c1 |
